Measurements taken from the supplement of paper PMC10307832.

Experiments:
Experiment in all cases: relative viability (nuclei count vs DMSO), 5 days (fraction); higher = more cells survive
[1] = compound: C1=CC=C2C(=C1)C=CC(=C2SSC3=C(C=CC4=CC=CC=C43)O)O [IPA-3] + CC(C)C[C@H](NC(=O)[C@H](Cc1ccccc1)NC(=O)c1cnccn1)B(O)O [Bortezomib] (partner 0.002 µM)
In short: (§1)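 Values are medians from duplicate plates. Each reflects relative viability, defined as the nuclei count of treated wells over that of vehicle wells. Lung cancer cell lines in 1536-well plates were pin-tool dosed one day after seeding with one drug alone or with a fixed anchor-drug dose plus five library-drug doses (not always all listed) in √10 steps, then fixed, stained and imaged at 4× after 5 days.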

[2] = compound: Cc1ccc(-n2nc(C(C)(C)C)cc2NC(=O)Nc2ccc(OCCN3CCOCC3)c3ccccc23)cc1 [Doramapimod] + CC(C)C[C@H](NC(=O)[C@H](Cc1ccccc1)NC(=O)c1cnccn1)B(O)O [Bortezomib] (partner 0.002 µM)
In short: as §1

[3] = compound: Cc1ccc(-n2nc(C(C)(C)C)cc2NC(=O)Nc2ccc(OCCN3CCOCC3)c3ccccc23)cc1 [Doramapimod] + C[C@@H](Oc1cc(-c2cnn(C3CCNCC3)c2)cnc1N)c1c(Cl)ccc(F)c1Cl [Crizotinib] (partner 1 µM)
In short: as §1

[4] = compound: Cc1ccc(-n2nc(C(C)(C)C)cc2NC(=O)Nc2ccc(OCCN3CCOCC3)c3ccccc23)cc1 [Doramapimod] + Cc1nc(Nc2ncc(C(=O)Nc3c(C)cccc3Cl)s2)cc(N2CCN(CCO)CC2)n1 [Dasatinib] (partner 0.075 µM)
In short: as §1

NCI-H2405
relative viability ([1]; first compound 0.2 µM): 1.02
relative viability ([1]; first compound 0.6325 µM): 0.944
relative viability ([1]; first compound 2 µM): 1.02
relative viability ([1]; first compound 6.325 µM): 0.963
relative viability ([1]; first compound 20 µM): 1.02
relative viability ([2]; first compound 0.02 µM): 0.98
relative viability ([2]; first compound 0.06325 µM): 1.03
relative viability ([2]; first compound 0.2 µM): 0.984
relative viability ([2]; first compound 0.6325 µM): 0.712
relative viability ([2]; first compound 2 µM): 0.961
relative viability ([3]; first compound 0.02 µM): 0.822
relative viability ([3]; first compound 0.06325 µM): 0.826
relative viability ([3]; first compound 0.2 µM): 0.877
relative viability ([3]; first compound 0.6325 µM): 0.996
relative viability ([3]; first compound 2 µM): 0.798
relative viability ([4]; first compound 0.02 µM): 0.222
relative viability ([4]; first compound 0.06325 µM): 0.219
relative viability ([4]; first compound 0.2 µM): 0.2
relative viability ([4]; first compound 0.6325 µM): 0.403
relative viability ([4]; first compound 2 µM): 0.188

NCI-H2087
relative viability ([1]; first compound 0.2 µM): 1.04
relative viability ([1]; first compound 0.6325 µM): 0.796
relative viability ([1]; first compound 2 µM): 0.828
relative viability ([1]; first compound 6.325 µM): 0.749
relative viability ([1]; first compound 20 µM): 0.838
relative viability ([2]; first compound 0.02 µM): 0.931
relative viability ([2]; first compound 0.06325 µM): 0.866
relative viability ([2]; first compound 0.2 µM): 0.79
relative viability ([2]; first compound 0.6325 µM): 0.771
relative viability ([2]; first compound 2 µM): 0.768
relative viability ([3]; first compound 0.02 µM): 0.982
relative viability ([3]; first compound 0.06325 µM): 0.888
relative viability ([3]; first compound 0.2 µM): 0.922
relative viability ([3]; first compound 0.6325 µM): 0.908
relative viability ([3]; first compound 2 µM): 0.988
relative viability ([4]; first compound 0.02 µM): 0.937
relative viability ([4]; first compound 0.06325 µM): 1.07
relative viability ([4]; first compound 0.2 µM): 0.809
relative viability ([4]; first compound 0.6325 µM): 0.893
relative viability ([4]; first compound 2 µM): 0.837

NCI-H460
relative viability ([1]; first compound 0.2 µM): 1.64
relative viability ([1]; first compound 0.6325 µM): 1
relative viability ([1]; first compound 2 µM): 1.24
relative viability ([1]; first compound 6.325 µM): 1.07
relative viability ([1]; first compound 20 µM): 1.05
relative viability ([2]; first compound 0.02 µM): 0.961
relative viability ([2]; first compound 0.06325 µM): 1.12
relative viability ([2]; first compound 0.2 µM): 1.11
relative viability ([2]; first compound 0.6325 µM): 1.24
relative viability ([2]; first compound 2 µM): 1.05
relative viability ([3]; first compound 0.02 µM): 0.807
relative viability ([3]; first compound 0.06325 µM): 0.806
relative viability ([3]; first compound 0.2 µM): 0.986
relative viability ([3]; first compound 0.6325 µM): 0.846
relative viability ([3]; first compound 2 µM): 0.794
relative viability ([4]; first compound 0.02 µM): 0.445
relative viability ([4]; first compound 0.06325 µM): 0.499
relative viability ([4]; first compound 0.2 µM): 0.488
relative viability ([4]; first compound 0.6325 µM): 0.535
relative viability ([4]; first compound 2 µM): 0.437

LOU-NH91
relative viability ([1]; first compound 0.2 µM): 0.493
relative viability ([1]; first compound 0.6325 µM): 0.479
relative viability ([1]; first compound 2 µM): 0.498
relative viability ([1]; first compound 6.325 µM): 0.478
relative viability ([1]; first compound 20 µM): 0.597
relative viability ([2]; first compound 0.02 µM): 0.47
relative viability ([2]; first compound 0.06325 µM): 0.506
relative viability ([2]; first compound 0.2 µM): 0.532
relative viability ([2]; first compound 0.6325 µM): 0.444
relative viability ([2]; first compound 2 µM): 0.672
relative viability ([3]; first compound 0.02 µM): 0.729
relative viability ([3]; first compound 0.06325 µM): 0.724
relative viability ([3]; first compound 0.2 µM): 0.749
relative viability ([3]; first compound 0.6325 µM): 0.796
relative viability ([3]; first compound 2 µM): 0.61
relative viability ([4]; first compound 0.02 µM): 0.559
relative viability ([4]; first compound 0.06325 µM): 0.535
relative viability ([4]; first compound 0.2 µM): 0.599
relative viability ([4]; first compound 0.6325 µM): 0.671
relative viability ([4]; first compound 2 µM): 0.365

NCI-H1651
relative viability ([1]; first compound 0.2 µM): 1.02
relative viability ([1]; first compound 0.6325 µM): 0.912
relative viability ([1]; first compound 2 µM): 0.998
relative viability ([1]; first compound 6.325 µM): 1.04
relative viability ([1]; first compound 20 µM): 1.06
relative viability ([2]; first compound 0.02 µM): 0.922
relative viability ([2]; first compound 0.06325 µM): 0.996
relative viability ([2]; first compound 0.2 µM): 0.931
relative viability ([2]; first compound 0.6325 µM): 0.987
relative viability ([2]; first compound 2 µM): 0.907
relative viability ([3]; first compound 0.02 µM): 0.847
relative viability ([3]; first compound 0.06325 µM): 0.871
relative viability ([3]; first compound 0.2 µM): 0.875
relative viability ([3]; first compound 0.6325 µM): 0.89
relative viability ([3]; first compound 2 µM): 0.851
relative viability ([4]; first compound 0.02 µM): 0.481
relative viability ([4]; first compound 0.06325 µM): 0.458
relative viability ([4]; first compound 0.2 µM): 0.449
relative viability ([4]; first compound 0.6325 µM): 0.54
relative viability ([4]; first compound 2 µM): 0.32

NCI-H441
relative viability ([1]; first compound 0.2 µM): 0.446
relative viability ([1]; first compound 2 µM): 0.285
relative viability ([1]; first compound 6.325 µM): 0.734
relative viability ([1]; first compound 20 µM): 0.589
relative viability ([2]; first compound 0.02 µM): 0.308
relative viability ([2]; first compound 0.2 µM): 0.522
relative viability ([2]; first compound 0.6325 µM): 0.362
relative viability ([2]; first compound 2 µM): 0.266
relative viability ([3]; first compound 0.02 µM): 0.96
relative viability ([3]; first compound 0.06325 µM): 0.512
relative viability ([3]; first compound 0.2 µM): 0.67
relative viability ([3]; first compound 0.6325 µM): 0.741
relative viability ([3]; first compound 2 µM): 0.549
relative viability ([4]; first compound 0.02 µM): 0.413
relative viability ([4]; first compound 0.06325 µM): 0.506
relative viability ([4]; first compound 0.2 µM): 0.544
relative viability ([4]; first compound 2 µM): 0.425
